In the kinase profiling compilation of Christmann-Franck et al. (2016):

Experiments:
Assay in all cases: radiometric filter-binding kinase assay, Kinase HotSpot
Details in all cases: compound 0.5 µM; ATP 10 µM
[1] = biological target: PDGFRA (human) (UniProt P16234)
[2] = biological target: NEK2 (human) (UniProt P51955)
[3] = biological target: AKT3 (human) (UniProt Q9Y243)
[4] = biological target: TGFBR1 (human) (UniProt P36897)
[5] = biological target: ADRBK1 (human) (UniProt P25098)
[6] = biological target: MAP4K4 (human) (UniProt O95819)
[7] = biological target: CAMKK1 (human) (UniProt Q8N5S9)
[8] = biological target: PRKCA (human) (UniProt P17252)
[9] = biological target: ACVR1 (human) (UniProt Q04771)
[10] = biological target: CAMK1D (human) (UniProt Q8IU85)
[11] = biological target: SRMS (human) (UniProt Q9H3Y6)
SRMS (human), sequence (Q9H3Y6 whole entry, looked up): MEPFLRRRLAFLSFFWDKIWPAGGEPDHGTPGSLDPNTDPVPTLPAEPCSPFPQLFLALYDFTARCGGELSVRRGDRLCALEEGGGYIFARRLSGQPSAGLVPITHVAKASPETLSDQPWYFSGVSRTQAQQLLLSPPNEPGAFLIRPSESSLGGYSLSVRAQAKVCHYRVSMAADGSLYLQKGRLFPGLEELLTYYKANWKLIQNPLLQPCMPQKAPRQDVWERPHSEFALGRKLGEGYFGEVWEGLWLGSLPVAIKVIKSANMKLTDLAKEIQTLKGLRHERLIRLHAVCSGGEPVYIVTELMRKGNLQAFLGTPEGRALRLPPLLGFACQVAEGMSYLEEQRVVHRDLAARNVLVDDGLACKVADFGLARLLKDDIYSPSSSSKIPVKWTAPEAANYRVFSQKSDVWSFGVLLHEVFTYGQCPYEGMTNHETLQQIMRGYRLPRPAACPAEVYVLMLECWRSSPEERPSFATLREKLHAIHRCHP

[12] = biological target: CDK2 CCNE1 (human) (UniProt P24941+P24864)
[13] = biological target: LIMK1 (human) (UniProt P53667)
[14] = biological target: LCK (human) (UniProt P06239)
LCK (human), sequence (P06239 whole entry, looked up): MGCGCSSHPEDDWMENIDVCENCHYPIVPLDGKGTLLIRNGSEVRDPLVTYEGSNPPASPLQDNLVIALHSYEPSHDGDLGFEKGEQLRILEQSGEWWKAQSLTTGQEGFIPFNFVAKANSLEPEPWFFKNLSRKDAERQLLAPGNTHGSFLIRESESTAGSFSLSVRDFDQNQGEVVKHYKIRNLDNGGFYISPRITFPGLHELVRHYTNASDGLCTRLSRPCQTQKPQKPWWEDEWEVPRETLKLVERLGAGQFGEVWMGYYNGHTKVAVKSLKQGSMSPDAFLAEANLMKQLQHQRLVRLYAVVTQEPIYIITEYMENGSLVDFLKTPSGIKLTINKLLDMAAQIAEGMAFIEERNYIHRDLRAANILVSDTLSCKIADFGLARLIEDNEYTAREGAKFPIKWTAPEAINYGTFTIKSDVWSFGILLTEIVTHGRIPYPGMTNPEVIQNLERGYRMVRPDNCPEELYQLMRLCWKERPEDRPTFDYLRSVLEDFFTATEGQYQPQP

[15] = biological target: CDK1 CCNB1 (human) (UniProt P06493+P14635)
[16] = biological target: WNK3 (human) (UniProt Q9BYP7)
[17] = biological target: GRK5 (human) (UniProt P34947)
[18] = biological target: EPHA7 (human) (UniProt Q15375)
[19] = biological target: HIPK3 (human) (UniProt Q9H422)
HIPK3 (human), sequence (Q9H422 whole entry, looked up): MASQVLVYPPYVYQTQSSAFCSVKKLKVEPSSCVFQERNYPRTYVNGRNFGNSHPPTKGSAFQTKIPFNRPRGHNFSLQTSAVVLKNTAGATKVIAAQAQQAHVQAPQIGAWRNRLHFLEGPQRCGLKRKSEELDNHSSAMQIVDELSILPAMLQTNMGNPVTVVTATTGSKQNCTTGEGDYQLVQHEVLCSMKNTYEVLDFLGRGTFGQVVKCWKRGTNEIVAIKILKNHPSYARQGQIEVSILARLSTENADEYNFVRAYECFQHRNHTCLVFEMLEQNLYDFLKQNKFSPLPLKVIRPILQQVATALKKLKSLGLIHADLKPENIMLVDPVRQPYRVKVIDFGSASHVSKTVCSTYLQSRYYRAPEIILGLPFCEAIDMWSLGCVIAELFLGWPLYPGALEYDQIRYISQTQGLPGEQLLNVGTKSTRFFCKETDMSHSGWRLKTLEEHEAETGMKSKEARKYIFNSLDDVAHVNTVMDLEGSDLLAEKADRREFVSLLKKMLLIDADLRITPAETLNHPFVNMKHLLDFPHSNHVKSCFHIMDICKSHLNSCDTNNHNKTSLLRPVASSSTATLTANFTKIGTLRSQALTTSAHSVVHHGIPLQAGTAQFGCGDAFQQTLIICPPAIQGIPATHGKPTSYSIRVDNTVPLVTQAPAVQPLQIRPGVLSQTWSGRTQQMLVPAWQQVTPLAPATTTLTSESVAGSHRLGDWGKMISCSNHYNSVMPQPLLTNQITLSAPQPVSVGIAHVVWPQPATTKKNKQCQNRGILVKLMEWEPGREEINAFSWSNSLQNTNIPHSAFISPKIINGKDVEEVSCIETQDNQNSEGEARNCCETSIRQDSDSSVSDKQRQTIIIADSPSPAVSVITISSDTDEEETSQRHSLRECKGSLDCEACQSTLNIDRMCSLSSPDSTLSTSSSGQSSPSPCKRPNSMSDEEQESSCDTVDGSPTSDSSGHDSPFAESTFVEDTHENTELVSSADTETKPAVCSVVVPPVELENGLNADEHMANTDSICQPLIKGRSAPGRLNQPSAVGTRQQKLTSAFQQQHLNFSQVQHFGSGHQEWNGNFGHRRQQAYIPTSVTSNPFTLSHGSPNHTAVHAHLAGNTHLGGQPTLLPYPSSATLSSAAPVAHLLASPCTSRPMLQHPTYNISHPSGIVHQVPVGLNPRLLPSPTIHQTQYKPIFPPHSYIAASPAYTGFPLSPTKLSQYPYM

[20] = biological target: CAMK1 (human) (UniProt Q14012)
CAMK1 (human), sequence (Q14012 whole entry, looked up): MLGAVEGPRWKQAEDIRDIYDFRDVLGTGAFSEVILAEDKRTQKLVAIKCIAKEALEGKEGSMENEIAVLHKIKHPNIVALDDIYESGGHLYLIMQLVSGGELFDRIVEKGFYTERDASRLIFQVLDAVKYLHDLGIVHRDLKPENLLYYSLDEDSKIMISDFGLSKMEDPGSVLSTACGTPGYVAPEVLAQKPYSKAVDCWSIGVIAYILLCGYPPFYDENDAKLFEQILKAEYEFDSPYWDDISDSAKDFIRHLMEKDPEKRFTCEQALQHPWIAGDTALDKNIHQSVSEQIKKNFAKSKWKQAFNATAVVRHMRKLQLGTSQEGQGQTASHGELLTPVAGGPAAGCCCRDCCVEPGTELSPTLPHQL

[21] = biological target: EGFR (human) (UniProt P00533)
[22] = biological target: CHUK (human) (UniProt O15111)
[23] = biological target: CAMK2B (human) (UniProt Q13554)
[24] = biological target: PDGFRB (human) (UniProt P09619)
[25] = biological target: PRKCI (human) (UniProt P41743)
[26] = biological target: CSNK1G1 (human) (UniProt Q9HCP0)
[27] = biological target: ALK (human) (UniProt Q9UM73)
[28] = biological target: SRPK1 (human) (UniProt Q96SB4)
[29] = biological target: PRKD1 (human) (UniProt Q15139)
[30] = biological target: CDK7 CCNH MNAT1 (human) (UniProt P50613+P51948+P51946)
CDK7 CCNH MNAT1 (human), sequence (P50613 whole entry, looked up): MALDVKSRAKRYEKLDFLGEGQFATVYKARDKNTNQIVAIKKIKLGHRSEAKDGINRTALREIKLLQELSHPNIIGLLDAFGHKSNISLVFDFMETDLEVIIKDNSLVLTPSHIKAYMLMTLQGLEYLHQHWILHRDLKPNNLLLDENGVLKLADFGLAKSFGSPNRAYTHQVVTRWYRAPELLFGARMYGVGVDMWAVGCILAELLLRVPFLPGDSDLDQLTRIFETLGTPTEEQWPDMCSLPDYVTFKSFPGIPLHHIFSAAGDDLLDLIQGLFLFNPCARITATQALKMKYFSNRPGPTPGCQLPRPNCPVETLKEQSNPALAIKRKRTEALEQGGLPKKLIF
CDK7 CCNH MNAT1 (human), sequence (P51946 whole entry, looked up): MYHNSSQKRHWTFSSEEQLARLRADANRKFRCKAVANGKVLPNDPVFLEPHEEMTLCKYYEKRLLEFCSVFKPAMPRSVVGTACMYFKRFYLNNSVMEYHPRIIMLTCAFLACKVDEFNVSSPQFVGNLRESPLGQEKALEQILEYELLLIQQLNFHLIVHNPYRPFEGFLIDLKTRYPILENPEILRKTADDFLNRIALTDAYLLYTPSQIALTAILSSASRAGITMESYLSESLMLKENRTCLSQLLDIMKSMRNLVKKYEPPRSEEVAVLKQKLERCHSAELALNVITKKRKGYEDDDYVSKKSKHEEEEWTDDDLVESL
CDK7 CCNH MNAT1 (human), sequence (P51948 whole entry, looked up): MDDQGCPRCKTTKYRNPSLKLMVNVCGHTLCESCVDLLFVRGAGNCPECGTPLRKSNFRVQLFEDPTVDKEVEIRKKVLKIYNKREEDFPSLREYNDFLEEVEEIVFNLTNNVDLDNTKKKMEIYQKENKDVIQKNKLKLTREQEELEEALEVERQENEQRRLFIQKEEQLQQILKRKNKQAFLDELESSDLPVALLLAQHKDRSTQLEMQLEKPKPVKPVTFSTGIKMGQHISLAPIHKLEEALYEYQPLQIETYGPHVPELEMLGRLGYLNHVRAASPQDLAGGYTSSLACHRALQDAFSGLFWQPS

[31] = biological target: PRKD3 (human) (UniProt O94806)
PRKD3 (human), sequence (O94806 whole entry, looked up): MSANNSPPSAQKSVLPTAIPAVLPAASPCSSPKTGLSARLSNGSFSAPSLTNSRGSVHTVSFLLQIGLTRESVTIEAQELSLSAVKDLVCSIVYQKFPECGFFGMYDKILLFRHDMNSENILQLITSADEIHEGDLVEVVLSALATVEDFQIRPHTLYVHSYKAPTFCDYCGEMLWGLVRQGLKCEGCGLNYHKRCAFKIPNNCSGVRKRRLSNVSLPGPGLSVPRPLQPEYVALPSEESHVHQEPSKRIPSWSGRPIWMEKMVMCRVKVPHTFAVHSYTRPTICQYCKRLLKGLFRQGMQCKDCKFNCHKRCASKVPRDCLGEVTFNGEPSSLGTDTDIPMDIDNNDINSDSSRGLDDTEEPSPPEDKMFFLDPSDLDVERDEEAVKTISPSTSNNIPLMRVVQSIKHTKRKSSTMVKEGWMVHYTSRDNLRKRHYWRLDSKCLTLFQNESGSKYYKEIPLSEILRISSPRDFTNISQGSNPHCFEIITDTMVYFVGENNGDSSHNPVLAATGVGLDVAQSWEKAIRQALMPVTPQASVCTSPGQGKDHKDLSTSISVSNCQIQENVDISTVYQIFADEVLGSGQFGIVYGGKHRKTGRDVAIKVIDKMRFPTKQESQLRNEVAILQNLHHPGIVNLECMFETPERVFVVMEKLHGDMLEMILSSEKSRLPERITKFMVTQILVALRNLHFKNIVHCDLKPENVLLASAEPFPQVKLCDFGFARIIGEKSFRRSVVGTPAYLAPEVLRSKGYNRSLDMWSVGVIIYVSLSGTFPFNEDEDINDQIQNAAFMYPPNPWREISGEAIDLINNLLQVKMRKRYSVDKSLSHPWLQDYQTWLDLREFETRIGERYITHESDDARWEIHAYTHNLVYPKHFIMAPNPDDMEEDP

[32] = biological target: NEK4 (human) (UniProt P51957)
[33] = biological target: CDK3 CCNE1 (human) (UniProt Q00526+P24864)
[34] = biological target: MKNK2 (human) (UniProt Q9HBH9)
[35] = biological target: NTRK1 (human) (UniProt P04629)
[36] = biological target: MELK (human) (UniProt Q14680)
[37] = biological target: DYRK1A (human) (UniProt Q13627)
[38] = biological target: MINK1 (human) (UniProt Q8N4C8)
[39] = biological target: PRKCG (human) (UniProt P05129)
[40] = biological target: PRKCZ (human) (UniProt Q05513)
[41] = biological target: GRK6 (human) (UniProt P43250)
[42] = biological target: STK25 (human) (UniProt O00506)

AKT3 (human), sequence (Q9Y243 whole entry, looked up): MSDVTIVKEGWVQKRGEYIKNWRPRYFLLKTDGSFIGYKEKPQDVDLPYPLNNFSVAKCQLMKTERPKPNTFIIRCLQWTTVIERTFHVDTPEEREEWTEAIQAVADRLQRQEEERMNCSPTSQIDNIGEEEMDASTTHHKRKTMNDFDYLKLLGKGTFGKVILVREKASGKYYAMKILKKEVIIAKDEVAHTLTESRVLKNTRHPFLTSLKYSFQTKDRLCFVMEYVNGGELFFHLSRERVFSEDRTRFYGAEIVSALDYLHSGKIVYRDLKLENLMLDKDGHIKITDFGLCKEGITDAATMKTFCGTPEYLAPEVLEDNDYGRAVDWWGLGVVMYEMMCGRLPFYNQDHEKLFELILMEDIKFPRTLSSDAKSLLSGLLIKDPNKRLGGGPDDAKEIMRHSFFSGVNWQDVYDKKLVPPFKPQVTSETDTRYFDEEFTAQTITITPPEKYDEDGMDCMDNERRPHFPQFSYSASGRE

Compound CNc1cc2c(Nc3cccc(Br)c3)ncnc2cn1 has a residual activity [1] of 99%, a residual activity [2] of 88.3% and a residual activity [3] of 103%. The residual activity [4] was 97.7%, the residual activity [5] was 97% and the residual activity [6] was 86.9%. It also gave a residual activity [7] of 92.6%, a residual activity [8] of 101% and a residual activity [9] of 104%. For the same compound, the residual activity [10] was 92.5%, the residual activity [11] was 100% and the residual activity [12] was 88.6%. It also gave a residual activity [13] of 95.9%, a residual activity [14] of 96.7% and a residual activity [15] of 104%. For the same compound, the residual activity [16] was 97.4%, the residual activity [17] was 120% and the residual activity [18] was 94.6%. It also gave a residual activity [19] of 94.1%, a residual activity [20] of 92.3% and a residual activity [21] of 1.99%. The residual activity [22] was 99%, the residual activity [23] was 95.8% and the residual activity [24] was 86.4%. It also gave a residual activity [25] of 96.4%, a residual activity [26] of 81.7% and a residual activity [27] of 82%. The residual activity [28] was 90.7%, the residual activity [29] was 92.3% and the residual activity [30] was 102%. It also gave a residual activity [31] of 78.5%, a residual activity [32] of 94.9% and a residual activity [33] of 80.2%. It also gave a residual activity [34] of 32.3%, a residual activity [35] of 95.9% and a residual activity [36] of 91.6%. For the same compound, the residual activity [37] was 95.6%, the residual activity [38] was 91.9% and the residual activity [39] was 105%. The residual activity [40] was 98.6%, the residual activity [41] was 91.1% and the residual activity [42] was 102%.
Compound O=C1NC(=O)C(c2cn(CCCn3ccnc3)c3ccccc23)=C1Nc1ccccc1 has a residual activity [1] of 94.1%, a residual activity [2] of 106% and a residual activity [3] of 71%. For the same compound, the residual activity [4] was 101%, the residual activity [5] was 97.1% and the residual activity [6] was 64%. The residual activity [7] was 96.3%, the residual activity [8] was 32% and the residual activity [9] was 94.4%. For the same compound, the residual activity [10] was 97.4%, the residual activity [11] was 103% and the residual activity [12] was 81.8%. For the same compound, the residual activity [13] was 83.8%, the residual activity [14] was 99.4% and the residual activity [15] was 84.9%. For the same compound, the residual activity [16] was 100%, the residual activity [17] was 90.9% and the residual activity [18] was 89.5%. It also gave a residual activity [19] of 102%, a residual activity [20] of 106% and a residual activity [21] of 95.1%. For the same compound, the residual activity [22] was 105%, the residual activity [23] was 93.8% and the residual activity [24] was 76.5%. The residual activity [25] was 90.7%, the residual activity [26] was 95% and the residual activity [27] was 97.7%. It also gave a residual activity [28] of 99.5%, a residual activity [29] of 94.4% and a residual activity [30] of 96.3%. The residual activity [31] was 80%, the residual activity [32] was 94.9% and the residual activity [33] was 90.9%. It also gave a residual activity [34] of 87.2%, a residual activity [35] of 104% and a residual activity [36] of 101%. It also gave a residual activity [37] of 30.8%, a residual activity [38] of 90.1% and a residual activity [39] of 51.6%. The residual activity [40] was 99.6%, the residual activity [41] was 98.4% and the residual activity [42] was 63.1%.
O=C1NC(=O)/C(=C/c2ccc3c(c2)OC(F)(F)O3)S1 was tested, and the residual activity [1] was 103%, the residual activity [2] was 98.9% and the residual activity [3] was 103%. It also gave a residual activity [4] of 102%, a residual activity [5] of 103% and a residual activity [6] of 95.3%. It also gave a residual activity [7] of 86%, a residual activity [8] of 106% and a residual activity [9] of 97.4%. For the same compound, the residual activity [10] was 83.2%, the residual activity [11] was 103% and the residual activity [12] was 89.9%. For the same compound, the residual activity [13] was 96.4%, the residual activity [14] was 98.3% and the residual activity [15] was 99.6%. For the same compound, the residual activity [16] was 91.5%, the residual activity [17] was 105% and the residual activity [18] was 98.7%. The residual activity [19] was 90.1%, the residual activity [20] was 89.9% and the residual activity [21] was 85.1%. It also gave a residual activity [22] of 88.4%, a residual activity [23] of 99.8% and a residual activity [24] of 97.4%. The residual activity [25] was 95.9%, the residual activity [26] was 75.5% and the residual activity [27] was 83.4%. The residual activity [28] was 105%, the residual activity [29] was 94.8% and the residual activity [30] was 98.3%. It also gave a residual activity [31] of 91.4%, a residual activity [32] of 97.8% and a residual activity [33] of 99.4%. It also gave a residual activity [34] of 98.3%, a residual activity [35] of 92.5% and a residual activity [36] of 94.4%. For the same compound, the residual activity [37] was 84.6%, the residual activity [38] was 90.1% and the residual activity [39] was 101%. The residual activity [40] was 103%, the residual activity [41] was 95.4% and the residual activity [42] was 95.7%.
